According to patent US8658604B2, “Template-fixed beta-hairpin peptidomimetics with protease inhibitory activity” (Polyphor Ltd, priority 2005, dated 2014):
Where a SMILES comes first, the peptide text is derived from it.

Assays:
HELA cells (Acc57) = assay: Cytotoxicity assay (MTT reduction), HELA cells; format: cell-based; conditions: Hela cells
In short: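 HeLa cells were grown for 24 h, then exposed to peptides at 12.5, 25 and 50 μM in triplicate for 48 h at 37 °C. MTT reduction was read at 595 nm and growth % calculated relative to time-zero wells. LC50 interpolated by linear trend at −50% growth, GI50 at 50%.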

[1] = format: in vitro ADME; conditions: 10 µM
Method: 405 μl of plasma/albumin solution were placed in a polypropylene (PP) tube and spiked with 45 μl of compound from a […] solution B, derived from 135 μl of PBS and 15 μl of 1 mM peptide in PBS, pH 7.4. 150 μl aliquots were transferred into individual wells of the 10 kDa filter plate (Millipore MAPPB 1010 Biomax membrane). For “0 minutes controls”: 270 μl of PBS were placed in a PP tube and 30 μl of stock solution B was added and vortexed. 150 μl of control solution were placed into one well of the filter plate and served as “filtered control”.
Further 150 μl of control solution were placed directly into a receiver well (reserved for filtrate) and served as “not-filtered control”. The entire plate including evaporation lid was incubated for 60 min at 37° C. Plasma samples (rat plasma: Harlan Sera lab UK, human plasma: Blutspendezentrum Zürich) were centrifuged at least for 2 h at 4300 rpm (3500 g) and 15° C. in order to yield 100 filtrate. For “serum albumin”-samples (freshly prepared human albumin: Sigma A-4327, rat albumin: Sigma A-6272, all at 40 mg/ml concentration in PBS) approximately 1 hour of centrifugation was sufficient. The filtrates in the receiver PP plate were analysed by LC/MS as follower follows: Column: Jupiter C18 (Phenomenex), mobile phases: (A) 0.1% formic acid in water and (B) acetonitrile, gradient: 5%-100% (B) in 2 minutes, electrospray ionization, MRM detection (triple quadrupole). The peak areas were determined and triplicate values were averaged. The binding was expressed in percent of the (filtered and not-filtered time point 0 min) control 1 and 2 by: 100−(100×T60/T0). The average from these values was then calculated.

[2] = biological target: Trypsin, from human pancreas (Homo sapiens, UniProt P07477); assay: Enzymatic assay, trypsin; conditions: at 100 μM
Chymase, from human skin = biological target: T1, Chymase, from human skin (Homo sapiens, UniProt P23946); assay: Enzymatic assay, chymase
T1 sequence (P23946 22-247): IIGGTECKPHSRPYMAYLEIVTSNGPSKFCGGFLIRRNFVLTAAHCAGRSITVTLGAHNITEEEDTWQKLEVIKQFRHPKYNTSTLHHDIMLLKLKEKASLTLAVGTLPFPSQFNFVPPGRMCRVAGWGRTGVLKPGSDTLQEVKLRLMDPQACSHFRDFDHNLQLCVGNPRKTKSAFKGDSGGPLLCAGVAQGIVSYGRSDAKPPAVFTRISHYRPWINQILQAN

[3] = biological target: T2, Elastase from human neutrophils (Homo sapiens, UniProt P08246); assay: Enzymatic assay, elastase; conditions: Elastase IC50
T2 sequence (P08246 30-267): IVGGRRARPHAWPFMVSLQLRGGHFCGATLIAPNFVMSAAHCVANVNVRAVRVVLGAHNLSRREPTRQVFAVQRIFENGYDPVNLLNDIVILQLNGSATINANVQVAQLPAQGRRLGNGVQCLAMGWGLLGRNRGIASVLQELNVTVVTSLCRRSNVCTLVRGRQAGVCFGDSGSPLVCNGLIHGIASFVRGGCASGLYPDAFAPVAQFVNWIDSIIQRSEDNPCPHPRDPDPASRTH

[4] = biological target: Thrombin, from Human Plasma (Homo sapiens, UniProt P00734); assay: Enzymatic assay, thrombin
[5] = system: Tryptase, from human lung; assay: Enzymatic assay, tryptase; conditions: at 100 μM
[6] = biological target: Urokinase from human urine (Homo sapiens, UniProt P00749); assay: Enzymatic assay, urokinase
[7] = biological target: T3, CathepsinG, from human neutrophils (Homo sapiens, UniProt P08311); assay: Enzymatic assay, cathepsin G; conditions: for IC50: Cathepsin G IC50
T3 sequence (P08311 21-244): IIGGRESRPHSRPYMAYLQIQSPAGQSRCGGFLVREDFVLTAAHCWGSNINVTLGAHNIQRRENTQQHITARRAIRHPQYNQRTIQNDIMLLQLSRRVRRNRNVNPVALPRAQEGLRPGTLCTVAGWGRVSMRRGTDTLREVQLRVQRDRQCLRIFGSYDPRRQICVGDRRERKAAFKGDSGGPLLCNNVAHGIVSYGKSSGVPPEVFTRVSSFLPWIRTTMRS

[8] = biological target: Chymotrypsin, from human pancreas (Homo sapiens, UniProt P17538); assay: Enzymatic assay, chymotrypsin
[9] = biological target: Coagulation Factor Xa, from uman plasma (Homo sapiens, UniProt P00742); assay: Enzymatic assay, coagulation factor Xa
[10] = system: human red blood cells (hRBC); assay: Hemolysis

Chain of Coagulation Factor Xa, from uman plasma (P00742 235-488 limits assumed): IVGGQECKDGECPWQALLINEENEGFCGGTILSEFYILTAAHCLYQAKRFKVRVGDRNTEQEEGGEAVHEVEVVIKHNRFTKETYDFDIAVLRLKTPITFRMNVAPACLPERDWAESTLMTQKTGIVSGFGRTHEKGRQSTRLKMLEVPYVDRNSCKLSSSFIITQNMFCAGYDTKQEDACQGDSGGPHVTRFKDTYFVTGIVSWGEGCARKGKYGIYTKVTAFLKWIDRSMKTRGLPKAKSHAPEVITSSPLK
Chain of Coagulation Factor Xa, from uman plasma (P00742 41-179 limits assumed): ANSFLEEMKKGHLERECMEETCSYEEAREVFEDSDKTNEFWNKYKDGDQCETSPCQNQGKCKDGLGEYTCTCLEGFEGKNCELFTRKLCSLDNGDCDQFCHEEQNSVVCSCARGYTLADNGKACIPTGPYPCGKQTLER
Chain of Chymotrypsin, from human pancreas (P17538 19-263): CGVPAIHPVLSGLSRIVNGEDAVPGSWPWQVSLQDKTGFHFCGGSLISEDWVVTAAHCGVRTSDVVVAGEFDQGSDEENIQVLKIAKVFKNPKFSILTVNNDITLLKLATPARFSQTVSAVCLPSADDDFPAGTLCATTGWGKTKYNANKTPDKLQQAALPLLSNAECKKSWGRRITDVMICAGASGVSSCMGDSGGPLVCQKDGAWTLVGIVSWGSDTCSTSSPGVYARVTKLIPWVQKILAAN

Structure (SMILES): CCCC[C@@H]1NC(=O)[C@H](CC(=O)O)NC(=O)[C@H]2CCCN2C(=O)[C@H](Cc2ccc(O)cc2)NC(=O)[C@@H]2CSSC[C@H](NC1=O)C(=O)N[C@@H]([C@@H](C)O)C(=O)N[C@@H](C)C(=O)N[C@@H](CO)C(=O)N[C@@H]([C@@H](C)CC)C(=O)N1CCC[C@H]1C(=O)N1CCC[C@H]1C(=O)N[C@@H](CCC(N)=O)C(=O)N2 [Ex. 121] (HELM PEPTIDE1{[Nle].C.T.A.S.I.P.P.Q.C.Y.[dP].D}$PEPTIDE1,PEPTIDE1,2:R3-10:R3|PEPTIDE1,PEPTIDE1,1:R1-13:R2$$$V2.0)
- Cytotoxicity LC50/GI50 Hela cells (HELA cells (Acc57)): 49 µM
- Stability human Plasma t1/2 [1]: 5 h
- Stability rat Plasma t1/2 [1]: 5 h
- Trypsin at 100 μM % [2]: 12.8%
- Chymase at 100 μM % (Chymase, from human skin): 1.2%
- IC50 [3]: 0.018 µM
- Thrombin at 100 μM % [4]: 0%
- Tryptase at 100 μM % [5]: 4.6%
- Urokinase at 100 μM % [6]: 5.7%
- IC50 [7]: 11.2 µM
- IC50 [8]: 27.5 µM
- FXa at 100 μM % [9]: 5.6%

Structure (SMILES): CCCC[C@@H]1NC(=O)[C@H]([C@@H](C)O)NC(=O)[C@@H]2CSSC[C@H](NC(=O)[C@H]([C@@H](C)CC)NC(=O)[C@@H]3CCCN3C(=O)[C@@H]3CCCN3C(=O)[C@H](CC(=O)O)NC(=O)[C@H](CO)NC1=O)C(=O)N[C@@H](Cc1ccc(O)cc1)C(=O)N1CCC[C@@H]1C(=O)N1CCC[C@H]1C(=O)N[C@@H](Cc1ccccc1)C(=O)N2 [Ex. 23] (HELM PEPTIDE1{F.C.T.[Nle].S.D.P.P.I.C.Y.[dP].P}$PEPTIDE1,PEPTIDE1,2:R3-10:R3|PEPTIDE1,PEPTIDE1,1:R1-13:R2$$$V2.0)
- Cytotoxicity LC50/GI50 Hela cells (HELA cells (Acc57)): 51 µM
- Stability human Plasma t1/2 [1]: 5 h
- Stability rat Plasma t1/2 [1]: 5 h
- Hemolysis at 100 μM % [10]: 0%
- Trypsin at 100 μM % [2]: 90%
- Chymase at 100 μM % (Chymase, from human skin): 60%
- IC50 [3]: > 100 µM
- Thrombin at 100 μM % [4]: 0%
- Tryptase at 100 μM % [5]: 29%
- Urokinase at 100 μM % [6]: 9%
- IC50 [7]: 0.038 µM
- Chymotrypsin at 100 μM % [8]: 4%
- FXa at 100 μM % [9]: 11%

Structure (SMILES): C[C@@H]1NC(=O)[C@H]([C@@H](C)O)NC(=O)[C@@H]2CSSC[C@H](NC(=O)[C@H](CCC(N)=O)NC(=O)[C@@H]3CCCN3C(=O)[C@@H]3CCCN3C(=O)[C@H](CC3CCCCC3)NC(=O)[C@H](CO)NC1=O)C(=O)N[C@@H](CCC(N)=O)C(=O)N1CCC[C@@H]1C(=O)N1CCC[C@H]1C(=O)N[C@@H](CCc1ccccc1)C(=O)N2 [Ex. 158] (HELM PEPTIDE1{[O=C([C@H](CCc1ccccc1)N[*:1])[*:2]].C.T.A.S.[Cha].P.P.Q.C.Q.[dP].P}$PEPTIDE1,PEPTIDE1,2:R3-10:R3|PEPTIDE1,PEPTIDE1,1:R1-13:R2$$$V2.0)
- Stability human Plasma t1/2 [1]: 5 h
- Stability rat Plasma t1/2 [1]: 5 h
- Trypsin at 100 μM % [2]: 8%
- Chymase at 100 μM % (Chymase, from human skin): 0%
- IC50 [3]: 0.0071 µM
- Thrombin at 100 μM % [4]: 2%
- Tryptase At 100 μM % [5]: 13%
- Urokinase at 100 μM % [6]: 10%
- Cathepsin G at 100 μM % ([7]; at 100 μM): 55 at 100%
- Chymotrypsin at 100 μM % [8]: 93%
- FXa at 100 μM % [9]: 1%
